Experimental data taken from EP2963052A2, “PEPTIDES WITH CYTOPROTECTIVE ACTIVITY” (Zamerton Holdings Limited, priority 2013, dated 2016).
Residues, ends and D or L forms follow the SMILES beside them.

Key:
NIH 3T3 cells = experiment: Protective effect of peptides on apoptosis and necrosis in the presence of camptothecin (Annexin-V FITC / PI flow cytofluorimetry); format: cell-based, mice; conditions: NIH3T3 cell culture, 24 hours
From the text: (§1) The experiments to study the effect of peptides on apoptosis and necrosis involved the use of reagents in the ApoTarget Annexin-V FITC Apoptosis Kit (Invitrogen, CIIIA). In addition to Annexin-V, marked by the FITC fluorescent stain, the ApoTarget Annexin-V FITC Apoptosis Kit contains propidium iodide (PI), a dye. PI can permeate only those cells whose cytoplasmic membrane is damaged, which is a characteristic sign of an advanced stage of apoptosis or necrosis. Having permeated cells with damaged cell membrane, PI binds itself to the DNA. The «red» fluorescence of resulting complexes is identified with a flow cytofluorimeter.
(§2) Therefore, the procedure of double staining (Annexin-V FITC plus PI) and the process of flow cytofluorimetry can be used to distinguish 3 cell populations and determine their percentage relationship: 1) non-apoptotic cells (Annexin-V-negative and PI-negative), 2) cells at an early stage of apoptosis (Annexin-V-positive and PI-negative), 3) necrotic cells or cells at an advanced stage of apoptosis (Annexin-V- positive and PI- positive). An increase in the percentage of apoptotic and necrotic cells can serve as a measure of how the compounds added to the culture medium act on these processes. Camptothecin (Camptothecin, Sigma, CIIIA), which is recommended by the manufacturer, was used as control in the experiments because of its pronounced ability to induce apoptosis and necrosis of cells, especially tumor ones.
(§3) Peptide solutions in sterile PBS with concentrations of 1 mg/ml were prepared immediately before the experiments to study the peptides' effect on apoptosis and necrosis. The same solutions that were stored in sterile test tubes at +4°C were used to study the proliferation activity. Working dilutions of peptides in the cell cultivation medium were prepared on the day of each experiment. A sterile plastic 96-well plate (Corning, USA) was used for this purpose. The dilutions were prepared so that the introduction of 25 µl of each working dilution in an experimental well with cultivated cells would result in final concentrations of peptides equal to 400, 200, 100 and 50 ng/ml.
(§4) The HeLa S3 and NIH 3T3 cells were cultivated with the use of reagents manufactured by Invitrogen (USA) and plastic vials, plates, pipettes and filters of Corning (USA). The cells were cultivated in DMEM, prepared with a dry concentrate dissolved in pyrogen-free distilled water (Millipore, USA). The medium contained 10 % FBS, 2 mM of glutamine and penicillin-streptomycin (diluted according to the vendor's recommendations). HeLa S3 and NIH 3T3 were grown in vials T150 at +37 °C in the atmosphere of 5.6 % CO2. The cells were constantly maintained in the logarithmic growth phase, to this end they were passed at least 2 times a week, with trypsin used to remove cells from the walls of the culture vials. Live cells were counted in a hemacytometer after staining the suspension aliquot with trypan blue.
(§5) The HeLa S3 and NIH 3T3 cells were removed from the surface of the culture vials and counted; the concentration was moved to 10^5 cell/ml, and the resulting suspensions were put in doses of 1 ml in the wells of a 24-well plate.
(§6) Having made sure on the following day that the cells adhered to the plate's surface, the culture medium was replaced with a fresh one in each well.
(§7) Camptothecin was added in the control wells (positive control - stimulation of apoptosis and necrosis) to the final concentration of 50 µM that had been determined in preliminary experiments with the NIH 3T3 and HeLa S3 cells. 25 µl of fresh culture medium were added in the control wells (negative control), 25 µl of working peptide dilutions were added in each experimental well (each working dilution - twice), as well as camptothecin in the same final concentration. Incubation was conducted at +37 °C. […]

[1] = Stability of peptides in storage in solution (HPLC analysis); conditions: 0.05 M ammonium acetate buffer, approx. 1 mg/ml
Description: The peptides were dissolved in 0.05 M of an ammonium acetate buffer with pH 4.5 and pH 7.5 so that their concentrations achieved approximately 1 mg/ml. The solutions were sterilely filtered and kept in sterile, well-sealed vials. Upon expiration of the storage period the substances were analyzed with HPLC.

HeLa S3 cells = experiment: Protective effect of peptides on apoptosis and necrosis in the presence of camptothecin (Annexin-V FITC / PI flow cytofluorimetry); format: cell-based, human; conditions: HeLa cell culture, 24 hours
From the text: as §1, §2, §3, §4, §5, §6, §7

Annexin-V = target: T1, Annexin-V (Homo sapiens, UniProt P08758); conditions: calcium-dependent phospholipid binding; cited from earlier work
T1 sequence (P08758 1-320): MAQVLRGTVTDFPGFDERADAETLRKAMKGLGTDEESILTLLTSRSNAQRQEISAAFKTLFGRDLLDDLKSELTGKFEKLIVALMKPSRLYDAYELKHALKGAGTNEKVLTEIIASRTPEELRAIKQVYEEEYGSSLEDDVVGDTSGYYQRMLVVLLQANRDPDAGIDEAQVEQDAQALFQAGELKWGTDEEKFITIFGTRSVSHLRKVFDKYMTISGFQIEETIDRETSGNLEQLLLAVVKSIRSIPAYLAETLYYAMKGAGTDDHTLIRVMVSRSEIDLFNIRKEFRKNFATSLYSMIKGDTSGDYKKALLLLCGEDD

[2] = peptide 50 ng/ml + camptothecin 50 µM
[3] = peptide 100 ng/ml + camptothecin 50 µM
[4] = peptide 200 ng/ml + camptothecin 50 µM
[5] = peptide 400 ng/ml + camptothecin 50 µM

Compound	Apoptosis (NIH 3T3 cells; [2]) [%]	Necrosis (NIH 3T3 cells; [2]) [%]	Apoptosis (NIH 3T3 cells; [3]) [%]	Necrosis (NIH 3T3 cells; [3]) [%]	Apoptosis (NIH 3T3 cells; [4]) [%]	Necrosis (NIH 3T3 cells; [4]) [%]	Apoptosis (NIH 3T3 cells; [5]) [%]	Necrosis (NIH 3T3 cells; [5]) [%]	Peptide stability in storage ([1]; 1hour, pH 4.5, 22°C)	Peptide stability in storage ([1]; 1hour, pH 7.5, 22°C)	Peptide stability in storage ([1]; 10 days, pH 4.5, 22°C)	Peptide stability in storage ([1]; 10 days, pH 7.5, 22°C)	Apoptosis (HeLa S3 cells; [2]) [%]	Necrosis (HeLa S3 cells; [2]) [%]	Apoptosis (HeLa S3 cells; [3]) [%]	Necrosis (HeLa S3 cells; [3]) [%]	Apoptosis (HeLa S3 cells; [4]) [%]	Necrosis (HeLa S3 cells; [4]) [%]	Apoptosis (HeLa S3 cells; [5]) [%]	Necrosis (HeLa S3 cells; [5]) [%]	other results
H-Leu-Asp-Glu-OH [LDE]	2	3.7	2.5	3.8	1.6	3.5	2.5	3.4	96.5	96.5	96.4	96.4	1	2.5	1.4	3.1	0.5	2.2	1	2.1	Peptide stability in storage ([1]; 30 days, pH 4.5, 22°C): 96.4; Peptide stability in storage ([1]; 30 days, pH 7.5, 22°C): 96.4; Peptide stability in storage ([1]; 60 days, pH 4.5, 22°C): 96.2; Peptide stability in storage ([1]; 60 days, pH 7.5, 22°C): 96.2; Peptide stability in storage ([1]; 90 days, pH 4.5, 22°C): 96.2; Peptide stability in storage ([1]; 90 days, pH 7.5, 22°C): 95.6
C[C@H](N)C(=O)N[C@@H](CC(=O)O)C(=O)N[C@@H](CCC(=O)O)C(=O)N[C@@H](CCCNC(=N)N)C(=O)O [ADER, H-Ala-Asp-Glu-Arg-OH] (H-ADER-OH)	3	4	2.2	3.1	2.5	3.5	4.1	5	98.1	98.1	98.0	98.0	2	5.2	2.1	4.1	1.5	4	2.3	4	Peptide stability in storage ([1]; 30 days, pH 4.5, 22°C): 97.9; Peptide stability in storage ([1]; 30 days, pH 7.5, 22°C): 97.7; Peptide stability in storage ([1]; 60 days, pH 4.5, 22°C): 98.0; Peptide stability in storage ([1]; 60 days, pH 7.5, 22°C): 97.7; Peptide stability in storage ([1]; 90 days, pH 4.5, 22°C): 97.8; Peptide stability in storage ([1]; 90 days, pH 7.5, 22°C): 97.6
H-Val-Asp-Glu-OH [VDE]	3.5	5	1.8	2	2.2	3	3	4	98.1	98.1	98.0	97.7	2.2	3.1	3.1	3.6	3.5	4	2	2.4	Peptide stability in storage ([1]; 30 days, pH 4.5, 22°C): 97.6; Peptide stability in storage ([1]; 30 days, pH 7.5, 22°C): 97.6; Peptide stability in storage ([1]; 60 days, pH 4.5, 22°C): 97.55; Peptide stability in storage ([1]; 60 days, pH 7.5, 22°C): 97.55; Peptide stability in storage ([1]; 90 days, pH 4.5, 22°C): 97.55; Peptide stability in storage ([1]; 90 days, pH 7.5, 22°C): 97.2
CCNC(=O)[C@H](CCC(=O)O)NC(=O)[C@@H](N)CC(=O)O [DENHEt, H-Asp-Glu-NH-CH2-CH3] (HELM PEPTIDE1{D.E.[CCN[*:1]]}$$$$V2.0)	25	13	23	12	21	11	18	7	98.1	98.2	98.3	98.2	15	20	9	18	8	13	8	16	Peptide stability in storage ([1]; 30 days, pH 4.5, 22°C): 98.15; Peptide stability in storage ([1]; 30 days, pH 7.5, 22°C): 98.10; Peptide stability in storage ([1]; 60 days, pH 4.5, 22°C): 98.0; Peptide stability in storage ([1]; 60 days, pH 7.5, 22°C): 98.0; Peptide stability in storage ([1]; 90 days, pH 4.5, 22°C): 97.9; Peptide stability in storage ([1]; 90 days, pH 7.5, 22°C): 97.85
phosphatidylcholine	–	–	–	–	–	–	–	–	–	–	–	–	–	–	–	–	–	–	–	–	Kd (Annexin-V): 0.5 nM
CC(=O)N[C@@H](CC(=O)O)C(=O)N[C@@H](CCC(=O)O)C(=O)O [AcDE, Ac-Asp-Glu-OH] (Ac-Asp-Glu-OH)	35	50	30	46	22	34	19	28	–	–	–	–	21	13	17	11	15	8	22	7	–
COC(=O)[C@H](CCC(=O)O)NC(=O)[C@@H](N)CC(=O)O [DEOMe, H-Asp-Glu-OCH3] (HELM PEPTIDE1{D.E.[CO[*:1]]}$$$$V2.0)	4	6	2.5	4	3	5	3.3	6	98.0	98.0	98.1	98.0	4	5	2.1	4.5	2.3	4.5	2.5	5.5	Peptide stability in storage ([1]; 30 days, pH 4.5, 22°C): 97.7; Peptide stability in storage ([1]; 30 days, pH 7.5, 22°C): 97.65; Peptide stability in storage ([1]; 60 days, pH 4.5, 22°C): 97.55; Peptide stability in storage ([1]; 60 days, pH 7.5, 22°C): 97.5; Peptide stability in storage ([1]; 90 days, pH 4.5, 22°C): 97.5; Peptide stability in storage ([1]; 90 days, pH 7.5, 22°C): 97.2
